From patent publication US11464802B2, “3-substituted piperidine compounds for Cbl-b inhibition, and use thereof” (Nurix Therapeutics, Inc., priority 2019, dated 2022)

Legend:
[1] = tested on: primary human total T-cells; assay: Primary human total T-cell activation: IL-2 secretion, Biological Example 2; assay type: cell-based; details: 48 hours, fold change over baseline; for fold induction at 1 µM: inhibitor 1 μM
[2] = tested on: primary human total T-cells; assay: Primary human total T-cell activation: CD25 surface staining, Biological Example 2; assay type: cell-based; details: 48 hours, fold change over baseline; for fold induction at 1 µM: inhibitor 1 μM
[3] = tested on: primary human total T-cells; assay: Primary human total T-cell activation: IL-2 secretion, Biological Example 13; assay type: cell-based; details: 48 hours, fold change over baseline; for fold induction at 0.3 µM: inhibitor 0.3 μM; for fold induction at 0.3 µM / fold induction at 3 µM: Table 13-1; for fold induction at 1 µM: inhibitor 1 μM; for fold induction at 3 µM: inhibitor 3 μM
Cbl-b [4] = biological target: T1, Cbl-b (Homo sapiens (Human), UniProt Q13191); assay: Cbl-b displacement assay (Cbl-b inhibition assay), Biological Example 12; assay type: binding; details: Table 12-1
Protocol: (§1) Candidate compounds were evaluated for their ability to bind and inhibit Cbl-b, an E3 ubiquitin-protein ligase, as evidenced by their ability to displace a fluorophore-labeled probe bound to Cbl-b.
(§2) The ability of candidate compounds to displace a known inhibitor and thereby inhibit Cbl-b activity was measured by monitoring the interaction of Cbl-b with a fluorophore-labeled probe in the presence of the candidate compound. A truncated variant of Cbl-b (UniProt number Q13191) containing residues 36-427 and an Avitag at its N-terminus was co-expressed with BirA biotin ligase and purified using a standard protocol (see Dou et al., Nature Structural and Molecular Biology 8: 982-987, 2013; Avidity LLC).
(§3) Fluorescently-labeled inhibitor probe was synthesized and tagged with BODIPY FL. Cbl-b displacement assays were performed in a 384-well plate at room temperature in a 10 μl reaction volume by pre-incubating 0.5 nM Cbl-b or 0.125 nM Cbl-b (final concentration, indicated as “High” and “Low”, respectively) in an assay buffer containing 20 mM HEPES pH 7.5, 150 mM NaCl, 0.01% Triton X-100, 0.01% BSA and 0.5 mM TCEP in the presence of a candidate compound in 1% DMSO (final concentration) for 1 hour. After incubation in the presence of the candidate compound, the plate was incubated for an additional 1 hour in the presence of an approximate EC40 binding saturation consisting of 150 nM fluorescently-labeled inhibitor probe and 2 nM Streptavidin-Terbium (Cisbio) (final concentrations). Following the 1 hour incubation, the plates were read for TR-FRET signal at 520/620 nM using an Envision plate reader (Perkin Elmer).
(§4) The resulting data for the Cbl-b activity assays were analyzed using standard methods to determine the IC50 values for the tested compounds.

Cbl-b [5] = biological target: T1, Cbl-b; assay: Cbl-b displacement assay (Cbl-b inhibition assay), Biological Example 8; assay type: binding; details: Table 8-1
Protocol: as §1, §2, §3, §4

[6] = tested on: primary human total T-cells; assay: Primary human total T-cell activation: IL-2 secretion, Biological Example 9; assay type: cell-based; details: 48 hours, fold change over baseline; for fold induction at 0.3 µM: inhibitor 0.3 μM; for fold induction at 0.3 µM / fold induction at 3 µM: Table 9-1; for fold induction at 1 µM: inhibitor 1 μM; for fold induction at 3 µM: inhibitor 3 μM
Cbl-b [7] = biological target: T1, Cbl-b; assay: Cbl-b displacement assay (Cbl-b inhibition assay), TR-FRET probe displacement, Biological Example 1; assay type: binding
Outline: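 N-terminally Avitagged, biotinylated truncated Cbl-b (0.5 nM "High" or 0.125 nM "Low", final) pre-incubated 1 h at room temperature with compound (1% DMSO) in HEPES pH 7.5 buffer. Then 150 nM BODIPY FL probe (~EC40) plus 2 nM streptavidin-terbium for 1 h; TR-FRET read at 520/620 nm.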

[8] = tested on: primary human total T-cells; assay: Primary human total T-cell activation: CD25 surface staining, Biological Example 9; assay type: cell-based; details: 48 hours, fold change over baseline; for fold induction at 0.3 µM: inhibitor 0.3 μM; for fold induction at 0.3 µM / fold induction at 3 µM: Table 9-1; for fold induction at 1 µM: inhibitor 1 μM; for fold induction at 3 µM: inhibitor 3 μM
[9] = tested on: primary human total T-cells; assay: Primary human total T-cell activation: CD25 surface staining, Biological Example 13; assay type: cell-based; details: 48 hours, fold change over baseline; for fold induction at 0.3 µM: inhibitor 0.3 μM; for fold induction at 0.3 µM / fold induction at 3 µM: Table 13-1; for fold induction at 1 µM: inhibitor 1 μM; for fold induction at 3 µM: inhibitor 3 μM
[10] = anti-CD3/anti-CD28 co-stimulation, inhibitor 0.3 μM
[11] = anti-CD3/anti-CD28 co-stimulation
[12] = anti-CD3/anti-CD28 co-stimulation, Table 13-1, read-out: IL-2 secretion CD3/CD28 1 μM
[13] = anti-CD3 alone, Table 13-1, read-out: IL-2 secretion CD3 1 μM
[14] = 0.5 nM Cbl-b final concentration (High), read-out: Cbl-b IC50 (High)
[15] = anti-CD3/anti-CD28 co-stimulation, Table 9-1, read-out: IL-2 secretion CD3/CD28 1 μM
[16] = anti-CD3 alone, Table 9-1, read-out: IL-2 secretion CD3 1 μM
[17] = anti-CD3/anti-CD28 co-stimulation, Table 9-1, read-out: CD25 staining CD3/CD28 1 μM
[18] = anti-CD3 alone, Table 9-1, read-out: CD25 staining CD3 1 μM
[19] = anti-CD3/anti-CD28 co-stimulation, Table 13-1, read-out: CD25 staining CD3/CD28 1 μM
[20] = anti-CD3 alone, Table 13-1, read-out: CD25 staining CD3 1 μM
[21] = 0.125 nM Cbl-b final concentration (Low), read-out: Cbl-b IC50 (Low)

T1 sequence (Q13191 36-427): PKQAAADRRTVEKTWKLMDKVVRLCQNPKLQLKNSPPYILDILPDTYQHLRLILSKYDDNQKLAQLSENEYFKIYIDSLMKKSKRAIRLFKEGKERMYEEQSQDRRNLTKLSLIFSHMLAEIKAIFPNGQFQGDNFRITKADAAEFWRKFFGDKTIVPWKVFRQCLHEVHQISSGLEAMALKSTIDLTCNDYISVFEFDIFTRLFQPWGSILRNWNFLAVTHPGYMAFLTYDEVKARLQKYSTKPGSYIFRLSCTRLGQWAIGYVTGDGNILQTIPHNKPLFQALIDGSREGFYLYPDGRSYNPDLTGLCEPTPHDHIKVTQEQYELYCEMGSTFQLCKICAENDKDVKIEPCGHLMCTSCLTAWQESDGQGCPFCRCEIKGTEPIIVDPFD

| Structure (SMILES) | fold induction at 0.3 µM [3, 11] | fold induction at 1 µM [3, 12] | fold induction at 1 µM [3, 13] | fold induction at 3 µM ([3]; anti-CD3 alone) | fold induction at 0.3 µM [6, 11] | fold induction at 1 µM [6, 15] | fold induction at 1 µM [6, 16] | fold induction at 3 µM ([6]; anti-CD3 alone) | fold induction at 0.3 µM [8, 11] | fold induction at 1 µM [8, 17] | fold induction at 1 µM [8, 18] | fold induction at 3 µM ([8]; anti-CD3 alone) | fold induction at 0.3 µM [9, 11] | fold induction at 1 µM [9, 19] | fold induction at 1 µM [9, 20] | fold induction at 3 µM ([9]; anti-CD3 alone) | IC50 (Cbl-b [4]; [21]) [nM] | IC50 (Cbl-b [5]; [21]) [nM] | further results |
| --- | --- | --- | --- | --- | --- | --- | --- | --- | --- | --- | --- | --- | --- | --- | --- | --- | --- | --- | --- |
| C[C@H]1CCCN(Cc2cc3c(c(C(F)(F)F)c2)CN(c2cccc(C4(Cc5nncn5C)COC4)c2)C3=O)C1 [Compound 1, (S)-2-(3-(3-((4-methyl-4H-1,2,4-triazol-3-yl)methyl)oxetan-3-yl)phenyl)-6-((3-methylpiperidin-1-yl)methyl)-4-(trifluoromethyl)isoindolin-1-one] | > 15 | > 15 | > 0.66 | > 0.66 | > 15 | > 15 | > 0.66 | > 0.66 | > 1.39 | > 1.39 | > 1.14 | > 1.14 | > 1.39 | > 1.39 | > 1.14 | > 1.14 |  |  | fold induction at 0.3 µM [1, 10]: > 15; fold induction at 1 µM ([1]; anti-CD3/anti-CD28 co-stimulation, read-out: IL-2 secretion CD3/CD28 1 μM): > 15; fold induction at 1 µM ([1]; anti-CD3 alone, read-out: IL-2 secretion CD3 1 μM): > 0.66; fold induction at 3 µM ([1]; anti-CD3 alone, inhibitor 3 μM): > 0.66; fold induction at 0.3 µM [2, 10]: < 1.24; fold induction at 1 µM ([2]; anti-CD3/anti-CD28 co-stimulation, read-out: CD25 staining CD3/CD28 1 μM): < 1.24; fold induction at 1 µM ([2]; anti-CD3 alone, read-out: CD25 staining CD3 1 μM): < 1.04; fold induction at 3 µM ([2]; anti-CD3 alone, inhibitor 3 μM): < 1.04; IC50 (Cbl-b [4]; [14]): < 1 nM; IC50 (Cbl-b [5]; [14]): < 1 nM; IC50 (Cbl-b [7]; 0.5 nM Cbl-b final concentration (High), read-out: Cbl-b activity IC50 (High)): < 1 nM; IC50 (Cbl-b [7]; Cbl-b concentration (High or Low) not given, read-out: IC50 values in the Cbl-b inhibition assay of Biological Example 1): < 1 nM |
| C[C@@H](c1cc2c(c(C(F)(F)F)c1)CN(c1cccc(C3(Cc4nncn4C)COC3)c1)C2=O)N1CC[C@H](F)C1 [Compound 55] | > 15 | > 15 | 0.34 to 0.66 | 0.34 to 0.66 | > 15 | > 15 | 0.34 to 0.66 | 0.34 to 0.66 | > 1.39 | > 1.39 | > 1.14 | > 1.14 | > 1.39 | > 1.39 | > 1.14 | > 1.14 | 1 to 5 | 1 to 5 |  |
| C[C@H](c1cc2c(c(C(F)(F)F)c1)CN(c1cccc(C3(Cc4nncn4C)COC3)c1)C2=O)N1CC[C@H](F)C1 [Compound 56] | 11 to 15 | 11 to 15 | < 0.33 |  | 10 to 15 | 10 to 15 | < 0.33 |  | 1.25 to 1.39 | > 1.39 | > 1.14 |  | 1.25 to 1.39 | > 1.39 | > 1.14 |  | > 5 | > 5 |  |
| Cn1cnnc1C(F)(F)[C@](C)(F)c1cccc(N2Cc3c(cc(CN4CC[C@H](F)C4)cc3C(F)(F)F)C2=O)c1 [Compound 57] | < 10 | 11 to 15 | < 0.33 |  | < 10 | 10 to 15 | < 0.33 |  | 1.25 to 1.39 | > 1.39 | > 1.14 |  | 1.25 to 1.39 | > 1.39 | > 1.14 |  | > 5 | > 5 |  |
